According to US20240252668A1, “ANTIBODY DRUG CONJUGATES AND METHODS FOR MAKING THEREOF” (Novartis AG, priority 2021, published 2024):
Read-outs that look alike come from different tables or passages of the source. Starred links: 1 amine or outer side, 2 acyl side, 3 side chain; linkers in the order of their positions; H or OH if unused. Positions of bridges follow the written chain, without caps; N, C: chain ends. Non-standard residues stand in square brackets, D forms with d. Residues, ends and D or L forms follow the SMILES beside them. *: point of attachment. Leu(3R-O(AcLeu(3R-OH))) = CC(=O)N[C@H](C(=O)O[C@H](C(C)C)[C@H](N)C(=O)O)[C@H](O)C(C)C; Leu(3R-OH,Nα-propionyl) = CCC(=O)N[C@H](C(=O)*)[C@H](O)C(C)C; X1 = CC(C)[C@@H](O[*:3])[C@H](N[*:1])C(=O)[*:2]; NMeT = CN[C@H](C(=O)O)[C@@H](C)O; dPhLac = O=C(O)[C@H](O)Cc1ccccc1; X2 = CC(C)C=C(N[*:1])C(=O)[*:2]; NMeA = CN[C@@H](C)C(=O)O; NMeDha = C=C(NC)C(=O)O

Tests used:
[1] = Plasma incubation of compound (A1), human plasma, LC-MS/MS quantification; assay type: in vitro ADME; settings: formed in incubation of (A1) in human plasma, 37° C.
Experimental: Plasma incubations and sample preparation: Compound (A1) was spiked at 5.00 μg/mL in PBS and pooled mixed gender mouse (CD-1), cynomolgus monkey and human plasma. Samples were incubated on a Thermomixer (Eppendorf) at 37° C. while shaking at 650 rpm. Aliquots of 50 μL (n=3) were drawn from each incubation tube following 0, 0.5, 1, 2, 4, 8 and 24 h of incubation. 50 μL of sample was quenched with 200 μL of acetonitrile, containing both generic internal standards, glybenclamide and warfarin, at 62.5 ng/mL. Samples were briefly vortexed and centrifuged for 20 min at 4000 rpm and 4° C. 200 μL of the supernatant was transferred into a clean 800 μL 96-well sample collection plate.
Quantification by LC-MS/MS: LC-MS/MS analysis was conducted with a Shimadzu Nexera UPLC coupled to AB Sciex QTRAP 6500 using the SRM acquisition mode (3 μL injected). Samples were analyzed using a ACE 3° C.18-PFP (3 μM, 2.1×50 mm column) at a column temperature of 65° C. The starting conditions were 97% H20 containing 0.1% formic acid and 3% CH3CN containing 0.1% formic acid. Quantification of compound (A1) and 5 was performed by MS-MRM (electrospray in positive mode, ion spray voltage: 5000 V, source temperature: 500° C., curtain gas: 25 psig, nebulizer gas: 60 psig, turbo ion spray gas: 40 psig, mass range: low, resolution Q1/Q3: unit, collision gas: medium, dwell time: 12 msec). Separate calibration curves were established with calibration standards of compounds (A1) and 5 at concentrations of 10.0, 5.00, 2.50, 1.00, 0.500, 0.100, 0.050 and 0.010 μg/mL respectively. Peak integration and quantification was conducted with the AB Sciex Analyst software (v.1.7) using the Analyst Classic algorithm. […]

[2] = tested on: MP41 uveal melanoma cell line (heterozygous GNA11 Q209L); experiment: Cell proliferation assay (resazurin cell viability), MP41 cell line; assay type: cell-based
Excerpt: (§1) Cell Proliferation Assays with Chromodepsins (compounds (A1) and 2-15): Cell line descriptions: 92.1—uveal melanoma cell line, derived from primary tumor, harboring heterozygous GNAQ Q209L mutation. Purchased from Sigma Aldrich. MP41 (CRL-3297) -uveal melanoma cell line, derived from primary tumor, harboring heterozygous GNA11 Q209L mutation. Purchased from ATCC. A375—skin melanoma cell line, harboring homozygous BRAF V600E mutation. Origin: Cancer Cell Line Encyclopedia (CCLE). SK-MEL-30—skin melanoma cell line, harboring heterozygous NRAS Q61K mutation. Origin: CCLE.
(§2) Cells were cultured in 96-well plates in a total volume of 100 μL at 37° C., 5% CO2 and 95% relative humidity. All cell lines were cultured in RPMI Medium (RPMI 1640 w/o L-glutamine, Bioconcept ref. 1-41F01-I) except A375, DMEM medium (DMEM high glucose (4.5 g/L), Bioconcept, ref. 1-26F01-I), and supplemented with 10% FCS (Bioconcept, ref. 2-01F30-I). Two to three thousand cells were seeded in 96-well plates per well the night before they were treated with compounds (concentration range: from 260 nM to 0.036 nM with ⅓ dilution steps; for 7 the concentration range was increased from 10000 nM to 1.52 nM with ⅓ dilution steps). Cell viability was measured by addition of 10 ul of resazurin per well after 96 hours of treatment. Results were analyzed and plotted using GraphPad Prism 9.0.1.

[3] = tested on: A375 skin melanoma cell line (homozygous BRAF V600E); experiment: Cell proliferation assay (resazurin cell viability), A375 cell line; assay type: cell-based
Excerpt: as §1, §2

MDCK-LE monolayers = experiment: Cell-based transwell assay with MDCK-low efflux monolayers (passive permeability); assay type: in vitro ADME; settings: MDCK-LE monolayers
Experimental: Cell-based transwell assays with MDCK-low efflux monolayers: Compounds (A1) and 2-15 were tested in MDCK cell sub-clones with low effluxt ransporter activity (MDCK-LE) in order to determine their passive permeability. The incubations were performed at a contract research organization as described previously.

[4] = tested on: SK-MEL-30 skin melanoma cell line (heterozygous NRAS Q61K); experiment: Cell proliferation assay (resazurin cell viability), SK-MEL-30 cell line; assay type: cell-based
Excerpt: as §1, §2

[5] = tested on: 92.1 uveal melanoma cell line (heterozygous GNAQ Q209L); experiment: Cell proliferation assay (resazurin cell viability), 92.1 cell line; assay type: cell-based
Excerpt: as §1, §2

[6] = EPSA determination by supercritical fluid chromatography; assay type: physicochemical; settings: modified EPSA method, SFC
Experimental: […] by supercritical fluid chromatography: Compounds (A1) and 2-15 were tested by supercritical fluid chromatography (SFC) to determine their ESAPSA values. Samples were analyzed using a Chirex 3014 column ([…], 3×100 mm column, 100 Å pore size; Phenomenex. The starting conditions were 5% methanol containing 20 mM ammonium formate and 95% scCO2. The gradient was increased linearly to 60% methanol containing 20 mM ammonium formate in 4.5 min.

[7] = MP41 (GNA11 Q209L), 96 hours of treatment, read-out: GI50 by cell line, MP41
[8] = MP41 cell line, average of Rep. 1 and 2, read-out: GI50 MP41 Average
[9] = MP41 cell line, replicate 1, read-out: GI50 MP41 Rep. 1
[10] = MP41 cell line, replicate 2, read-out: GI50 MP41 Rep. 2
[11] = A375 (GNAQ/11 wild type), 96 hours of treatment, read-out: GI50 by cell line, A375
[12] = A375 cell line, average of Rep. 1 and 2, read-out: GI50 A375 Average
[13] = A375 cell line, replicate 1, read-out: GI50 A375 Rep. 1
[14] = A375 cell line, replicate 2, read-out: GI50 A375 Rep. 2
[15] = SK-MEL-30 (GNAQ/11 wild type), 96 hours of treatment, read-out: GI50 by cell line, SK-MEL-30
[16] = SK-MEL-30 cell line, average of Rep. 1 and 2, read-out: GI50 SK-MEL-30 Average
[17] = SK-MEL-30 cell line, replicate 1, read-out: GI50 SK-MEL-30 Rep. 1
[18] = SK-MEL-30 cell line, replicate 2, read-out: GI50 SK-MEL-30 Rep. 2
[19] = 92.1 (GNAQ Q209L), 96 hours of treatment, read-out: GI50 by cell line, 92.1
[20] = 92.1 cell line, average of Rep. 1 and 2, read-out: GI50 92.1 Average
[21] = 92.1 cell line, replicate 1, read-out: GI50 92.1 Rep. 1
[22] = 92.1 cell line, replicate 2, read-out: GI50 92.1 Rep. 2

C=C(C(=O)N[C@@H](C)C(=O)N(C)[C@@H](C)C(=O)N[C@H](C(=O)N(C)[C@H](C(=O)O)[C@@H](C)OC)[C@H](OC(=O)[C@@H](NC(=O)CC)[C@H](O)C(C)C)C(C)C)N(C)C(=O)[C@@H](Cc1ccccc1)OC(=O)C(=CC(C)C)NC(C)=O [Compound 5] (Ac-[X2][dPhLac][NMeDha]A[NMeA][X1](Leu(3R-OH,Nα-propionyl))[NMeT](Me)-OH)
Concentration of 5, Aliquot 1 ([1]; 0 h): BLQ | Concentration of 5, Aliquot 2 ([1]; 0 h): BLQ | Concentration of 5, Aliquot 3 ([1]; 0 h): BLQ | Concentration of 5, Aliquot 1 ([1]; 0.5 h): 0.0613 µg/mL | Concentration of 5, Aliquot 2 ([1]; 0.5 h): 0.0673 µg/mL | Concentration of 5, Aliquot 3 ([1]; 0.5 h): 0.0671 µg/mL | Mean concentration of 5 ([1]; 0.5 h): 0.0652 µg/mL | Concentration of 5, Aliquot 1 ([1]; 1 h): 0.117 µg/mL | Concentration of 5, Aliquot 2 ([1]; 1 h): 0.123 µg/mL | Concentration of 5, Aliquot 3 ([1]; 1 h): 0.142 µg/mL | Mean concentration of 5 ([1]; 1 h): 0.127 µg/mL | Concentration of 5, Aliquot 1 ([1]; 2 h): 0.255 µg/mL | Concentration of 5, Aliquot 2 ([1]; 2 h): 0.289 µg/mL | Concentration of 5, Aliquot 3 ([1]; 2 h): 0.317 µg/mL | Mean concentration of 5 ([1]; 2 h): 0.287 µg/mL | Concentration of 5, Aliquot 1 ([1]; 4 h): 0.615 µg/mL | Concentration of 5, Aliquot 2 ([1]; 4 h): 0.647 µg/mL | Concentration of 5, Aliquot 3 ([1]; 4 h): 0.677 µg/mL | Mean concentration of 5 ([1]; 4 h): 0.646 µg/mL | Concentration of 5, Aliquot 1 ([1]; 8 h): 1.37 µg/mL | Concentration of 5, Aliquot 2 ([1]; 8 h): 1.48 µg/mL | Concentration of 5, Aliquot 3 ([1]; 8 h): 1.57 µg/mL | Mean concentration of 5 ([1]; 8 h): 1.47 µg/mL | Concentration of 5, Aliquot 1 ([1]; 24 h): 3.14 µg/mL | Concentration of 5, Aliquot 2 ([1]; 24 h): 2.82 µg/mL | Concentration of 5, Aliquot 3 ([1]; 24 h): 3.14 µg/mL | Mean concentration of 5 ([1]; 24 h): 3.03 µg/mL | GI50 [2, 7]: > 260 nM | GI50 [2, 8]: > 260 nM | GI50 [2, 9]: > 260 nM | GI50 [2, 10]: > 260 nM | GI50 [3, 11]: > 260 nM | GI50 [3, 12]: > 260 nM | GI50 [3, 13]: > 260 nM | GI50 [3, 14]: > 260 nM | % Fraction absorbed (MDCK-LE monolayers): 4.2% | % Recovery (MDCK-LE monolayers): 86% | Papp A − B (MDCK-LE monolayers): 2.7e-07 cm/s | GI50 [4, 15]: > 260 nM | GI50 [4, 16]: > 260 nM | GI50 [4, 17]: > 260 nM | GI50 [4, 18]: > 260 nM | GI50 [5, 19]: > 260 nM | GI50 [5, 20]: > 260 nM | GI50 [5, 21]: > 260 nM | GI50 [5, 22]: > 260 nM | EPSA [6]: 229 A^2

C=C1C(=O)N[C@@H](C)C(=O)N(C)[C@@H](C)C(=O)N[C@@H]([C@H](OC(=O)[C@@H](NC(C)=O)[C@H](O)C(C)C)C(C)C)C(=O)N(C)[C@@H]([C@@H](C)OC)C(=O)O[C@H](C)[C@H](NC(C)=O)C(=O)O[C@H](Cc2ccccc2)C(=O)N1C [Compound 13] (Ac-T[dPhLac][NMeDha]A[NMeA][Leu(3R-O(AcLeu(3R-OH)))][NMeT](Me); ester 1-C)
GI50 [2, 7]: 6 nM | GI50 [2, 8]: 6 nM | GI50 [2, 9]: 3.6 nM | GI50 [2, 10]: 8.31 nM | GI50 [3, 11]: > 260 nM | GI50 [3, 12]: > 260 nM | GI50 [3, 13]: > 260 nM | GI50 [3, 14]: > 260 nM | % Fraction absorbed (MDCK-LE monolayers): 46.5% | % Recovery (MDCK-LE monolayers): 85% | Papp A − B (MDCK-LE monolayers): 2.69e-06 cm/s | GI50 [4, 15]: > 260 nM | GI50 [4, 16]: > 260 nM | GI50 [4, 17]: > 260 nM | GI50 [4, 18]: > 260 nM | GI50 [5, 19]: 15.7 nM | GI50 [5, 20]: 15.7 nM | GI50 [5, 21]: 10.1 nM | GI50 [5, 22]: 21.4 nM | EPSA [6]: 95 A^2
